Numbered stars: 1 amine (or outer) side, 2 acyl side, 3 side chain; on linkers, the order of the positions; unused ones are H or OH. Bridge positions count the residues as written; N and C are the ends. Square brackets hold non-standard residues; d marks the D form. Peptide text beside a SMILES is read from it. * marks the point of attachment. Orn(4R-OH,5R-OH) = O=C([C@H](C[C@@H](O)[C@@H](O)N[*:3])N[*:1])[*:2]; Tetradecanoyl(10R,12S-Me2) = CC[C@H](C)C[C@H](C)CCCCCCCCC(=O)*; hTyr(3S-OH,4S-OH) = N[C@H](C(=O)O)[C@H](O)[C@@H](O)c1ccc(O)cc1; Gln(3R-OH) = NC(=O)C[C@@H](O)[C@H](N)C(=O)O; Pro(3S-OH) = O=C(O)[C@H]1NCC[C@@H]1O; Hyp = O=C(O)[C@@H]1C[C@@H](O)CN1

The record followed here is patent US5202309A, “Antibiotic cyclopeptide fermentation product” (Merck & Co., Inc., priority 1991, dated 1993).

For assay [1], the system named is Candida albicans. The assay can be described thus: Microbroth dilution assay in YNBD, minimum fungicidal concentration. The format is cell-based. Conditions: then Sabouraud dextrose agar 24 hours at 28° C. The method, then: (§1) The compounds were further diluted to 256 μg/ml in YNBD. […] After incubation, each culture was diluted in sterile water to yield a final concentration of 1-5×10^6 colony forming units (CFU)/ml.
(In general: Dilution methods test growth across graded concentrations, often in twofold steps.)

For assay [2], the system named is Candida parapsilosis. The assay is described as above. The format is cell-based. Conditions: Candida parapsilosis MY 1010, 35° C. 24 hours, then Sabouraud dextrose agar 24 hours at 28° C. The method, then: as §1

`CC[C@H](C)C[C@H](C)CCCCCCCCC(=O)N[C@H]1C[C@@H](O)[C@@H](O)NC(=O)[C@@H]2[C@@H](O)CCN2C(=O)[C@H]([C@H](O)CC(N)=O)NC(=O)[C@H]([C@H](O)[C@@H](O)c2ccc(O)cc2)NC(=O)[C@@H]2C[C@@H](O)CN2C(=O)[C@H]([C@@H](C)O)NC1=O` [Compound I, 1-[4,5-dihydroxy-N^2-(10,12-dimethyl-1-oxotetradecyl)ornithine]-5-(3-hydroxy-glutamine)-6-(3-hydroxyproline)echinocandin B] ({Tetradecanoyl(10R,12S-Me2)}-[Orn(4R-OH,5R-OH)]T[Hyp][hTyr(3S-OH,4S-OH)][Gln(3R-OH)][Pro(3S-OH)]; lactam 1-C): the “Minimum Fungicidal Concentration” value in assay [1] (Candida albicans MY 1208, 35° C. 24 hours) amounted to 0.5 µg/mL; in assay [1] (Candida albicans MY 1783, 35° C. 24 hours), 0.5 µg/mL; in assay [2] it was 8.0 µg/mL.
